Among the data in US10570184B2, “GLP-1/glucagon receptor co-agonists for medical use” (Novo Nordisk A/S, priority 2014, dated 2020) are IC50 values, retold here.

In general, IC50 refers to the concentration that inhibits the measured activity by half.

Starred links: 1 amine or outer side, 2 acyl side, 3 side chain; linkers in the order of their positions; H or OH if unused. Non-standard residues stand in square brackets, D forms with d. Residues, ends and D or L forms follow the SMILES beside them. Groups on a side chain read outwards from the residue. *: point of attachment. C18 diacid = O=C(O)CCCCCCCCCCCCCCCCC(=O)*; γGlu = O=C(O)[C@H](CCC(=O)[*:2])N[*:1]; Ac4c = NC1(C(=O)O)CCC1; AEEA = NCCOCCOCC(=O)O

The target in this experiment is T1, human glucagon receptor (Homo sapiens, UniProt P47871).
T1 construct: expressed in transfected cells; host or cells: membranes of BHK cells, clone BHK hGCGR A3*25
In words: Assay (II)(b) glucagon receptor binding, 125I-glucagon displacement SPA on BHK membranes. The settings on record: without presence of serum albumin; read-out: GlucagonR IC50 (nM) [Assay (II)(b)]. As for the experimental part:
The glucagon receptor (glucagonR) binding activity is a measure of affinity of a derivative for the human glucagon receptor. The receptor binding of each compound to the human glucagon receptor was measured in a displacement binding assay. In this type of assay a labelled ligand (in this case 125I-glucagon) is bound to the receptor. Each derivative was added in a series of concentrations to isolated membranes containing the human glucagon receptor and displacement of the labelled ligand is monitored. The receptor binding was reported as the concentration at which half of the labelled ligand is displaced from the receptor, the IC50 value. In order to test the binding of the derivatives to albumin, the assay may be performed in a very low concentration of serum albumin (max. 0.001% final assay concentration) as well as in the presence of a higher concentration of serum albumin (0.2% final assay concentration). An increase of the IC50 value, in the presence of serum albumin indicates an affinity to serum albumin and represents a method to predict a protracted pharmacokinetic profile of the test substance in animal models. […] The protein concentration was determined. […]

T1 sequence (P47871 26-477): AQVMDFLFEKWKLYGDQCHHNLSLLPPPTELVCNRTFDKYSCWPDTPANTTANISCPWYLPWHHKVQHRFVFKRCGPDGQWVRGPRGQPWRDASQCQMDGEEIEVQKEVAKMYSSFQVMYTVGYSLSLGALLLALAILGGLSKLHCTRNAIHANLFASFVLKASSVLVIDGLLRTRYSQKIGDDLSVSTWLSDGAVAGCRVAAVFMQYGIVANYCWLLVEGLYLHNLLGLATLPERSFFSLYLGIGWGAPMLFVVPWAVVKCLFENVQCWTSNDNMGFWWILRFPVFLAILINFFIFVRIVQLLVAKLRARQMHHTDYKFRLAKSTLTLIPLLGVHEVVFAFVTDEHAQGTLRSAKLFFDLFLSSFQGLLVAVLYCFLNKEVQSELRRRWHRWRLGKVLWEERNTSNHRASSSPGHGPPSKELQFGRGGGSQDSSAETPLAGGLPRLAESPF

On to `CC[C@H](C)[C@H](NC(=O)[C@H](CC(C)C)NC(=O)[C@H](Cc1c[nH]c2ccccc12)NC(=O)[C@H](CCC(N)=O)NC(=O)[C@@H](NC(=O)[C@H](Cc1ccccc1)NC(=O)[C@H](CCC(=O)O)NC(=O)[C@H](CCCNC(=N)N)NC(=O)[C@H](C)NC(=O)[C@H](CCCNC(=N)N)NC(=O)[C@H](CCCNC(=N)N)NC(=O)[C@H](CO)NC(=O)[C@H](CCC(=O)O)NC(=O)[C@H](CC(C)C)NC(=O)[C@H](Cc1ccc(O)cc1)NC(=O)[C@H](CCCCN)NC(=O)[C@H](CO)NC(=O)[C@H](CC(C)C)NC(=O)[C@H](CC(=O)O)NC(=O)[C@H](CO)NC(=O)[C@@H](NC(=O)[C@H](Cc1ccccc1)NC(=O)[C@@H](NC(=O)CNC(=O)[C@H](CCC(N)=O)NC(=O)C1(NC(=O)[C@@H](N)Cc2c[nH]cn2)CCC1)[C@@H](C)O)[C@@H](C)O)C(C)C)C(=O)N[C@@H](CCCCNC(=O)CNC(=O)[C@H](CO)NC(=O)[C@H](CCC(=O)O)NC(=O)CNC(=O)[C@H](CO)NC(=O)CC[C@H](NC(=O)CC[C@H](NC(=O)CCCCCCCCCCCCCCCCC(=O)O)C(=O)O)C(=O)O)C(=O)N[C@H](C(N)=O)[C@@H](C)O` [Chem. 16, N^ε28-[2-[[(2S)-2-[[(2S)-4-carboxy-2-[[2-[[(2S)-2-[[(4S)-4-carboxy-4-[[(4S)-4-carboxy-4-(17-carboxyheptadecanoylamino)butanoyl]amino]butanoyl]amino]-3-hydroxypropanoyl]amino]acetyl]amino]butanoyl]amino]-3-hydroxypropanoyl]amino]acetyl]-[Acb2,Leu10,Glu15,Arg20,Glu21,Ile27,Lys28]-Glucagon amide] (HELM PEPTIDE1{H.[O=C(C1(N[*:1])CCC1)[*:2]].Q.G.T.F.T.S.D.L.S.K.Y.L.E.S.R.R.A.R.E.F.V.Q.W.L.I.K.T.[am]}|PEPTIDE2{[O=C(O)CCCCCCCCCCCCCCCCC(=O)[*:2]].[gGlu].[gGlu].S.G.E.S.G}$PEPTIDE1,PEPTIDE2,28:R3-8:R2$$$V2.0), for which the IC50 is 2.7 nM.

For `CC[C@H](C)[C@H](NC(=O)[C@H](CC(C)C)NC(=O)[C@H](Cc1c[nH]c2ccccc12)NC(=O)[C@H](CCC(N)=O)NC(=O)[C@@H](NC(=O)[C@H](Cc1ccccc1)NC(=O)[C@H](CCC(=O)O)NC(=O)[C@H](CCC(N)=O)NC(=O)[C@H](C)NC(=O)[C@H](CCCNC(=N)N)NC(=O)[C@H](CCCNC(=N)N)NC(=O)[C@H](CO)NC(=O)[C@H](CCC(=O)O)NC(=O)[C@H](CC(C)C)NC(=O)[C@H](Cc1ccc(O)cc1)NC(=O)[C@H](CCCCN)NC(=O)[C@H](CO)NC(=O)[C@H](CC(C)C)NC(=O)[C@H](CC(=O)O)NC(=O)[C@H](CO)NC(=O)[C@@H](NC(=O)[C@H](Cc1ccccc1)NC(=O)[C@@H](NC(=O)CNC(=O)[C@H](CCC(N)=O)NC(=O)C1(NC(=O)[C@@H](N)Cc2c[nH]cn2)CCC1)[C@@H](C)O)[C@@H](C)O)C(C)C)C(=O)N[C@@H](CCCCNC(=O)CC[C@H](NC(=O)COCCOCCNC(=O)COCCOCCNC(=O)CC[C@H](NC(=O)CC[C@H](NC(=O)CCCCCCCCCCCCCCCCC(=O)O)C(=O)O)C(=O)O)C(=O)O)C(=O)N[C@H](C(N)=O)[C@@H](C)O` [Chem. 38, N^ε28-[(4S)-4-carboxy-4-[[2-[2-[2-[[2-[2-[2-[[(4S)-4-carboxy-4-[[(4S)-4-carboxy-4-(17-carboxyheptadecanoylamino)butanoyl]amino]butanoyl]amino]ethoxy]ethoxy]acetyl]amino]ethoxy]ethoxy]acetyl]amino]butanoyl]-[Acb2,Leu10,Glu15,Glu21,Ile27,Lys28]-Glucagon amide] (H-H[Ac4c]QGTFTSDLSKYLESRRAQEFVQWLIK([γGlu-AEEA-AEEA-γGlu-γGlu-C18 diacid])T-NH2; N-terminus assumed), the IC50 is 2.7 nM.
